# PMC10475101, “Selective steroidogenic cytochrome P450 haem iron ligation by steroid-derived isonitriles” (Communications Chemistry, 2023)
# Key:
# [1] = biological target: CYP106A2 (Priestia megaterium, UniProt Q06069); assay: Absorbance difference spectra titration of CYP106A2; format: binding, bacterial; conditions: 1 µM CYP106A2
# Experimental: Fig. 5 CYP106A2 interaction with steroidal isonitriles. […] Maximum concentration of 2 (light blue trace) is 20 µM. […] Maximum concentration of 4 is ~10 µM (blue trace). C Overlay of 800 MHz ^1H,^15N-TROSY-HSQC spectra of ^15N-Gly-labeled CYP106A2 with levopimaric acid p-benzoquinone Diels-Alder adduct bound after reduction with sodium dithionite and treatment with carbon monoxide (red), or with 7,17-(bis)isonitrile 4 (blue) after anaerobic reduction with sodium dithionite.
# [2] = biological target: T1, CYP17A1 (Homo sapiens, UniProt P05093); assay: biochemical
# T1 construct: made in house
# T1 sequence (P05093 24-508 limits assumed): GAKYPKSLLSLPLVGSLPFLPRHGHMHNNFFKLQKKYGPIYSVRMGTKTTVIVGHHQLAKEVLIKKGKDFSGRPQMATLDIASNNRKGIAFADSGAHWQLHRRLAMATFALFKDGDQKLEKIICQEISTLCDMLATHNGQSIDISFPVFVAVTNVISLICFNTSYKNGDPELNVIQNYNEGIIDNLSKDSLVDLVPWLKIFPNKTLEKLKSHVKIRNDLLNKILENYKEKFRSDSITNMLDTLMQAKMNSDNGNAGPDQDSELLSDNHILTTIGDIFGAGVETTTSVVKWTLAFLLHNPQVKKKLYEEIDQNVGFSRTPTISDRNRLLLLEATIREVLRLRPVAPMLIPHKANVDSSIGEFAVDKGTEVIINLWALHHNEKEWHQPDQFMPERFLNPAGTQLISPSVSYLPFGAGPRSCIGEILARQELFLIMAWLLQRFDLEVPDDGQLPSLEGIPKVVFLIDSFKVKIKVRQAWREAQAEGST
# Experimental: Metabolic activity of CYP17A1 was evaluated by measuring 17α-hydroxylation of progesterone as detected by HPLC with UV detection at 240 nm. A 1:4 ratio of CYP17A1 to recombinant NADPH-cytochrome P450 reductase was mixed and incubated on ice for 20 min. […] Reaction vials were warmed to 37 °C for 3 min, then catalysis was initiated by adding NADPH to a final concentration of 1 mM. After 10 min, metabolism was quenched by adding 300 µL of 20% trichloroacetic acid and placed on ice. The reaction vials were centrifuged to pellet the precipitated protein, then the supernatant was injected onto a C18 column for HPLC identification of product. Metabolite elution was normalized to β-estradiol as an internal standard. A standard curve of known product concentrations was used to convert normalized area under curve to amount of product produced. A four-parameter variable-slope equation was used to fit the data and calculate IC50 values for inhibitors using GraphPad Prism 9.
# 196 by HPLC with UV detection at 240 nm. A 1:4 ratio of CYP17A1 to recombinant NADPH-cytochrome P450
# 197 reductase was mixed and incubated on ice for 20 minutes. This mixture was added to buffer (50 mM Tris, pH
# 199 Reaction vials were warmed to 37 °C for three minutes, then catalysis was initiated by adding NADPH to a
# 200 final concentration of 1 mM. After 10 minutes, metabolism was quenched by adding 300 µL of 20%
# 201 trichloroacetic acid and placed on ice. The reaction vials were centrifuged to pellet the precipitated protein,
# 202 then the supernatant was injected onto a C18 column (Phenomenex, Luna, 50 x 4.6 mm) for HPLC. The 30-
# 203 minute HPLC method ran at 0.8 mL/min and started with a mobile phase of 60% acetonitrile, 40% water with
# 204 0.2% acetic acid for five minutes, in creased to 80% acetonitrile over 10 minutes, held at 80% acetonitrile for
# 205 five minutes, 100% acetonitrile for five minutes, then returned to 60% acetonitrile to prepare for the next
# 206 sample. Metabolite elution was normalized to β-estradiol as an internal standard. A standard curve of known
# 207 product concentrations was used to convert normalized area under curve to amount of product produced. A
# 208 four-parameter variable-slope equation (Y=Ymin + (Ymax-Ymin)/(1+(IC50/X)^(Hill Slope))) was used to fit the data
# 209 and calculate IC50 values for inhibitors using GraphPad Prism 9.
# [3] = biological target: T2, CYP3A4 (Homo sapiens, UniProt P08684); format: biochemical; conditions: concentrations up to 100 µM
# T2 construct: made in house
# Experimental: (Adapted from Bart & Scott)[28]. Metabolic activity of CYP3A4 was evaluated by measuring metabolism of nifedipine to dehydronifedipine […], as detected by HPLC with UV detection at 254 nm. Reactions were carried out in amber microcentrifuge tubes (NFP is light sensitive) in a final volume of 150 μl. A 1:2 ratio of CYP3A4 to recombinant NADPH-cytochrome P450 reductase was mixed and incubated at room temperature for 20 min. This mixture was added to buffer (40 mM HEPES, 30 mM MgCl2, pH 7.4) containing 0.1 mM NFP and increasing concentrations of 1c (0–100 µM). Reaction vials were warmed to 37 °C for 3 min, then catalysis was initiated by adding NADPH to a final concentration of 1 mM. After 20 min, metabolism was quenched by adding 50 µL acetonitrile and placed on ice. […]
# 187 a baseline absorbance reading from 400 to 500 nm using a UV-visible scanning spectrophotometer, of a 1cm […]
# 190 phosphate buffer (pH 7.4), 20% glycerol, and 100 mM sodium chloride). A small quantity of sodium dithionite
# 191 (spatula tip-full) was then added to the cuvette, and the spectra were recorded periodically over time to […]
# 195 Metabolic activity of CYP17A1 was evaluated by measuring 17α-hydroxylation of progesterone as detected […]
# 212 dehydronifedipine, as detected by HPLC with UV detection at 254 nm. […]
# CYP106A2, sequence (Q06069 whole entry): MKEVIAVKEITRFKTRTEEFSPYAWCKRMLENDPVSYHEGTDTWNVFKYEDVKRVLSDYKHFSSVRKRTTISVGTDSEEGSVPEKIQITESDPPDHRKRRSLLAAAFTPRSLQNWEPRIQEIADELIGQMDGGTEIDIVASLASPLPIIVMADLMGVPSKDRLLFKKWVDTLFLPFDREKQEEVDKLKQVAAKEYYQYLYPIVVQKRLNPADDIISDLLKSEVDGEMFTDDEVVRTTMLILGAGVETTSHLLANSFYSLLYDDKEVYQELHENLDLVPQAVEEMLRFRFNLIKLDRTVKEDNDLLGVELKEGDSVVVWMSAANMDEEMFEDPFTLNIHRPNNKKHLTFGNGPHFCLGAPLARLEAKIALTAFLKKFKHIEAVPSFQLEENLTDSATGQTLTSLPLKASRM
# T2 sequence (P08684 23-503 limits assumed): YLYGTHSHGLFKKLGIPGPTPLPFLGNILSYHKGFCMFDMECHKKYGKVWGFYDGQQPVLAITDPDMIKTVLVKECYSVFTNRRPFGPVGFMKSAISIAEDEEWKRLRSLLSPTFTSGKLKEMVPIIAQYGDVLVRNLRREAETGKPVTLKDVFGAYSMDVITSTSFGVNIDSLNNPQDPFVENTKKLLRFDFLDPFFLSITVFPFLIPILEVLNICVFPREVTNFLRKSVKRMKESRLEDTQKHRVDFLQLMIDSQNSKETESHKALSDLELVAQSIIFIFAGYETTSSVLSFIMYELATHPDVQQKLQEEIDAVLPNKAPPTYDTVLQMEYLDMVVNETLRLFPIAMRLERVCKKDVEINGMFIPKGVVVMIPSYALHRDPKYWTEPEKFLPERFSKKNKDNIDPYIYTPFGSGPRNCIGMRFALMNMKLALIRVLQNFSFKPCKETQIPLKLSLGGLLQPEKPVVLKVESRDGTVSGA
structure (smiles),measurement,setting,value
"[C-]#[N+][C@H](C)[C@H]1CC[C@H]2[C@@H]3CC[C@H]4C[C@@H](OC=O)CC[C@]4(C)[C@H]3CC[C@]12C [Compound 1, 3β-formyl-5α-pregnanolone-(R)-20-isonitrile]",spectral response / binding mode on CYP106A2,[1],does not cause spectral perturbation
same,spectral response / binding mode on CYP106A2,[1]; listed as 20-(R)-1,no evidence for formation of a Fe—C bonded complex
same,IC50,[2],1300 nM
same,slope of the inhibition curve,[2]; CYP17A1 progesterone hydroxylation,2.4
same,inhibition of CYP3A4-catalyzed nifedipine oxidation,[3],no inhibition
